What is called EC50 is the midpoint of the concentration-response curve. Read a low EC50 as higher potency in that assay. One may read the melting point as the temperature of the solid-liquid transition.

For data set [1], the target named is T1, [V390I/Y410E/E274V]-CfEcR (Choristoneura fumiferana, UniProt O77240).
T1 construct: assay construct b835
In kind it is cell-based. The note with it: 3T3 Cells; for RMFI (relative maximum fold induction): relative to GS-E ligand. The method, boiled down: (§1)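 NIH3T3 cells were transiently co-transfected with GAL4-DBD fused to CfEcR DEF domains (wild-type or V390I/Y410E/E274V), VP16-AD fused to chimeric human/Locusta RXR, and a GAL4-response luciferase reporter. Ligand was given at 8 doses, 0.01–33 µM, 0.33% DMSO, luciferase read at 48 h. EC50 came from fold induction over DMSO via three-parameter logistic fit; Relative Max FI was taken versus GS™-E ligand.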

For data set [2], the target named is wild-type Choristoneura fumiferana EcR (D, E and F domains) (Choristoneura fumiferana, UniProt O77240). The class given is cell-based. Conditions: WT-CtEcR, 3T3 Cells; for RMFI (relative maximum fold induction): relative to GS-E ligand. The method, boiled down:
as §1

Data set [3] has as its system RheoSwitch® Therapeutic System (RTS) gene expression. The data set is described as follows: In vivo induction of RTS SEAP reporter in electroporated mice. The arrangement: species or system C57BL6 mice. Conditions: intraperitoneal injection 26 nmol/mouse; monitored seventeen days. From the text:
The wild-type D, E, and F domains from spruce budworm Choristoneura fumiferana EcR (“CfEcR-DEF”; SEQ ID NO: 1) were mutated [V107 (gtt)→1107 (att) and Y127 (tac)→E127 (gag)] and fused to a GAL4 DNA binding domain (“Gal4DBD1-147”; SEQ ID NO: 2). Helices 1 through 8 of the EF domains from Homo sapiens RXRPβ (“HsRXRβ-EF”; nucleotides 1-465 of SEQ ID NO: 4) and helices 9 through 12 of the EF domains of Locusta migratoria Ultraspiracle Protein (“LmUSP-EF”; nucleotides 403-630 of SEQ ID NO: 5) were fused to the transactivation domain from VP16 (“VP16AD”; SEQ ID NO: 6), which regulates a reporter gene human secreted alkaline phosphatase (“SEAP”, SEQ ID NO: 12) that was placed under the control of a 6xGAL4 response element (SEQ ID NO: 13) and a transthyretin promoter (SEQ ID NO: 14). Each element of the gene switch was on a separate plasmid. Receptor expression was under the control of a CMV promoter (SEQ ID NO: 15). Induction was evaluated by the amount of reporter protein expressed in the presence of ligand.
SEAP expression in serum of mice was evaluated after electroporation of the gene switch into mouse quadriceps. Mice were anesthetized with 2 μL/g of a mixture of ketamine (100 mg/mL) and xylazine (20 mg/mL). Animals were then shaved, DNA vectors injected into the muscle in a volume of 2×50 μL polyglutamic acid (12 mg/mL water), electrode conductivity gel applied, and an electrode caliber (1 cm×1 cm; model 384) was placed on hind leg. The muscle was electroporated with 200 V/cm, 8 times, for 20 msec/pulse, at 1 sec time intervals. The transverse electrical field direction was reversed after the animals received half of the pulses. Electroporation was performed with an ECM 830 electroporator from BTX Molecular Delivery Systems.
[…] In other experiments the concentration of ligand was decreased to 26 nmol/50 μL of DMSO/mouse. […]
Mouse serum was obtained by centrifugation of blood acquired by retroorbital bleeding with a small glass capillary tube. SEAP quantification was determined using a Clontech Great Escape chemiluminescence kit and by comparison with the Clontech SEAP standard. […]

Where two headings read alike, the source gives them in different places.

For `CCC[C@H](N(NC(=O)c1cccc(OC)c1CC)C(=O)c1cc(C)cc(C)c1)C(C)(C)C` [Example 31, (S)-3,5-Dimethyl-benzoic acid N-(1-tert-butyl-butyl)-N′-(2-ethyl-3-methoxy-benzoyl)-hydrazide], in data set [1] (S), the EC50 is roughly 30 nM and the “RMFI (relative maximum fold induction)” value is 0.57. In addition, in data set [2] (S), the EC50 came to 136 nM and the “RMFI (relative maximum fold induction)” value is on record as 0.52. The “RTS gene reporter (SEAP) expression in mouse serum” value in data set [3] is listed as “does not induce RTS gene reporter expression”.

Consider `CCC[C@@H](N(NC(=O)c1ccccc1Br)C(=O)c1cc(C)cc(C)c1)C(C)(C)C` [Example 7, (R)-3,5-Dimethyl-benzoic acid N′-(2-bromo-benzoyl)-N-(1-tert-butyl-butyl)-hydrazide], for which the melting point fell in the range of 145 to 147 °C. Also, in data set [1] (R), the half-maximal effective concentration (EC50) worked out at 1.4 nM and the “RMFI (relative maximum fold induction)” value is recorded as 0.90. In data set [2] (R), the EC50 was determined as 78.7 nM and the “RMFI (relative maximum fold induction)” value amounted to 0.58.
